# Assay results from patent US11999759B2, “Boronic acid derivatives and therapeutic uses thereof” (Qpex Biopharma, Inc., priority 2016, dated 2024).
# Assays:
# [1] = target: OXA-48 (Klebsiella pneumoniae, UniProt Q6XEC0); assay: Inhibition of nitrocefin cleavage by purified OXA-48; assay type: biochemical; conditions: nitrocefin reporter substrate; 10 min preincubation at room temperature; read-out: Ki (OXA-48, NCF)
# Experimental: (§1) Ki values of inhibition of purified class A, C and D enzymes were determined spectrophotometrically using nitrocefin as reporter substrate. Purified enzymes were mixed with various concentrations of inhibitors in reaction buffer and incubated for 10 min at room temperature. Nitrocefin was added and substrate cleavage profiles were recorded at 490 nm every 10 sec for 10 min. These experiments confirmed that the described compounds are inhibitors with a broad-spectrum of activity towards various β-lactamases.
# [2] = target: NDM-1 (Klebsiella pneumoniae, UniProt C7C422); assay: Inhibition of imipenem cleavage by purified NDM-1; assay type: biochemical; conditions: imipenem reporter substrate; 37° C.; read-out: Ki (NDM-1, IMI)
# NDM-1, sequence (C7C422 29-270, looked up, species assumed): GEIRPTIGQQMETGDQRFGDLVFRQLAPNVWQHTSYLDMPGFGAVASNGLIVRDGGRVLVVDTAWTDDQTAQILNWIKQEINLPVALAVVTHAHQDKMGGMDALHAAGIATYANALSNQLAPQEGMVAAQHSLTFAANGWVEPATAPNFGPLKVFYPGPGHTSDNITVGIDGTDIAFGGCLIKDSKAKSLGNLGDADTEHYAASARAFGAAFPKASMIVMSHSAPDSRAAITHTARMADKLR
# Experimental: Purified enzymes were mixed with various concentrations of inhibitors in reaction buffer and incubated for 10 min at room temperature. Imipenem was added and substrate cleavage profiles were recorded at 294 nm every 30 seconds for 30 minutes at 37° C.
# [3] = target: KPC-2 (Klebsiella pneumoniae, UniProt Q9F663); assay: Inhibition of nitrocefin cleavage by purified KPC-2; assay type: biochemical; conditions: nitrocefin reporter substrate; 10 min preincubation at room temperature; read-out: Ki (KPC-2, NCF)
# KPC-2, sequence (Q9F663 25-293 limits assumed): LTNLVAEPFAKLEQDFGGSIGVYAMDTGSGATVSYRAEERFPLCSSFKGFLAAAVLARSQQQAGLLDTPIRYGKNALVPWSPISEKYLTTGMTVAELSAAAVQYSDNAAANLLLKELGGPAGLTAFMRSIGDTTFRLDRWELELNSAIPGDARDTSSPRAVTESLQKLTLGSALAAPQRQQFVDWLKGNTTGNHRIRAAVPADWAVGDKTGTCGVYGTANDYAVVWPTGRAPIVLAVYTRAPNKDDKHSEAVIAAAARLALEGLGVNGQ
# Experimental: as §1
# [4] = target: CTX-M-14 (Escherichia coli, UniProt Q9L5C7); assay: Inhibition of nitrocefin cleavage by purified CTX-M-14; assay type: biochemical; conditions: nitrocefin reporter substrate; 10 min preincubation at room temperature; read-out: Ki (CTX-M-14, NCF)
# CTX-M-14, sequence (Q9L5C7 29-291, species assumed): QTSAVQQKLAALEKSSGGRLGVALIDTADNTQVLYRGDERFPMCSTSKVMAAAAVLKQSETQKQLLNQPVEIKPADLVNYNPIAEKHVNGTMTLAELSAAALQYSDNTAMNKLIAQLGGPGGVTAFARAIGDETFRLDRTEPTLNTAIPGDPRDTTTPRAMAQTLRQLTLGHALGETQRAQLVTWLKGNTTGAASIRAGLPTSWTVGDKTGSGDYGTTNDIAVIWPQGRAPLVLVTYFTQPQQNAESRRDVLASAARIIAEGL
# Experimental: as §1, with “min.” for “min. These experiments confirmed that the described compounds are inhibitors with a broad-spectrum of activity towards various β-lactamases.”
# [5] = target: VIM-1 (Pseudomonas aeruginosa, UniProt A0A0F7KYQ8); assay: Inhibition of nitrocefin cleavage by purified VIM-1; assay type: biochemical; conditions: nitrocefin reporter substrate; 10 min preincubation at room temperature; read-out: Ki (VIM-1, NCF)
# [6] = test system: PAM1154/KPC-2 (lacked MexAB-OprM); assay: Biapenem potentiation (MPC64) in PAM1154/KPC-2; assay type: cell-based, Pseudomonas aeruginosa; parameters: PAM1154/KPC-2 Biapenem MPC64: unit not given here; conditions: BLI potency to decrease biapenem MIC 64-fold, from 32 to 0.5 μg/ml; efflux deficient strain
# Experimental: (§2) Efflux of BLIs from Pseudomonas aeruginosa by the MexAB-OprM efflux pump was also evaluated. The plasmid expressing the gene encoding KPC-2 was introduced into two strains of P. aeruginosa, PAM1032 and PAM1154 that overexpressed or lacked MexAB-OprM, respectively. Due to expression of KPC-2 both strains became resistant to biapenem. […] Potency of BLIs to potentiate biapenem in these strains was determined. […] The ratio of MPC64 values for each BLI in PAM1032/KPC-2 (efflux proficient) and PAM1154/KPC-2 (efflux deficient) was determined to generate the Efflux Index (EI) as shown in Table 8.
# [7] = target: OXA-23 (Acinetobacter baumannii, UniProt Q9L4P2); assay: Inhibition of nitrocefin cleavage by purified OXA-23; assay type: biochemical; conditions: nitrocefin reporter substrate; 10 min preincubation at room temperature; read-out: Ki (OXA-23, NCF)
# OXA-23, sequence (Q9L4P2 18-273): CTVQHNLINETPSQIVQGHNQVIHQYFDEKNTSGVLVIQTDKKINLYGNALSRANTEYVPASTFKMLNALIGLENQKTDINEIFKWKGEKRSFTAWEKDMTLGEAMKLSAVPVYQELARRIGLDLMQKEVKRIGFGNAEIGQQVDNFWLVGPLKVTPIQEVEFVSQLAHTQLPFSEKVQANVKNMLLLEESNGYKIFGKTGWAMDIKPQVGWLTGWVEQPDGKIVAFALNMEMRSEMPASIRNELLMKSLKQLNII
# Experimental: as §1
# [8] = target: Pa-AmpC (Pseudomonas aeruginosa, UniProt P24735); assay: biochemical; conditions: nitrocefin reporter substrate; 10 min preincubation at room temperature; read-out: Ki (Pa-AmpC, NCF)
# Pa-AmpC, sequence (P24735 27-397): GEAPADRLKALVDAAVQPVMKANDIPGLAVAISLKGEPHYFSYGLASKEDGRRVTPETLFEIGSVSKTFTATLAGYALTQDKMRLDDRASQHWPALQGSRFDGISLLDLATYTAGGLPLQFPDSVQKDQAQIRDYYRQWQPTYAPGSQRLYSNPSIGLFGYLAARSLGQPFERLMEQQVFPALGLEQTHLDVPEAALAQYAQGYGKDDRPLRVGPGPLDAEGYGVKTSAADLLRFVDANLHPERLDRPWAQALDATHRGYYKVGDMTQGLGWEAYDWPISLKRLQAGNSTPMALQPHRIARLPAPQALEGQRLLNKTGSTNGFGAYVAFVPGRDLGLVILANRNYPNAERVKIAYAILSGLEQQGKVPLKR
# Experimental: as §1, with “min.” for “min. These experiments confirmed that the described compounds are inhibitors with a broad-spectrum of activity towards various β-lactamases.”
# [9] = target: P99 (Enterobacter cloacae, UniProt P05364); assay: biochemical; conditions: nitrocefin reporter substrate; 10 min preincubation at room temperature; read-out: Ki (P99, NCF)
# P99, sequence (P05364 21-381): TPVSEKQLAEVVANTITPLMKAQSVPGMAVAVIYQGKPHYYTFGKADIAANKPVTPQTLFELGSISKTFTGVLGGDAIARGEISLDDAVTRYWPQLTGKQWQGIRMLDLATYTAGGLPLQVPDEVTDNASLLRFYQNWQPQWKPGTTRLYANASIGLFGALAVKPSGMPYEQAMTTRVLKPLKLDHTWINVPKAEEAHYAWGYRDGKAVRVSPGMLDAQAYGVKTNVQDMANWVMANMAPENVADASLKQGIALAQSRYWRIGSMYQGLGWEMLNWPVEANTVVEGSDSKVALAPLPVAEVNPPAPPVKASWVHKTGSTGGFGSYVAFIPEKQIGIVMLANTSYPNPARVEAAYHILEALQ
# Experimental: as §1, with “min.” for “min. These experiments confirmed that the described compounds are inhibitors with a broad-spectrum of activity towards various β-lactamases.”
# [10] = target: IMP-1 (Serratia marcescens, UniProt P52699); assay: Inhibition of imipenem cleavage by purified IMP-1; assay type: biochemical; conditions: imipenem reporter substrate; 37° C.; read-out: Ki (IMP-1, IMI)
# IMP-1, sequence (P52699 19-246, looked up, species assumed): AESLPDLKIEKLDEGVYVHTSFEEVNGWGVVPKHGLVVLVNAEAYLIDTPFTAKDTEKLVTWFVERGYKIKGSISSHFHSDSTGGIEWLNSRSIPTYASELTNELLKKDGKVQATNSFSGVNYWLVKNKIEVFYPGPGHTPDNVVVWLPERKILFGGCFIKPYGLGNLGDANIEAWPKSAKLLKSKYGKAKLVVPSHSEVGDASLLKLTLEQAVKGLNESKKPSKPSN
# Experimental: Ki values of inhibition of purified class B enzymes NDM-1 and IMP-1 were determined spectrophotometrically using imipenem as reporter substrate. Purified enzymes were mixed with various concentrations of inhibitors in reaction buffer and incubated for 10 min at room temperature. Imipenem was added and substrate cleavage profiles were recorded at 294 nm every 30 seconds for 30 minutes at 37° C. These experiments further confirmed that the described compounds have the ability to inhibit carbapenemase activity of metallo-beta-lactamases.
# [11] = test system: PAM1032/KPC-2 (overexpressed MexAB-OprM); assay: Biapenem potentiation (MPC64) in PAM1032/KPC-2; assay type: cell-based, Pseudomonas aeruginosa; parameters: PAM1032/KPC-2 Biapenem MPC64: unit not given here; conditions: BLI potency to decrease biapenem MIC 64-fold, from 32 to 0.5 μg/ml; efflux proficient strain
# Experimental: as §2
# OXA-48, sequence (Q6XEC0 23-265, looked up): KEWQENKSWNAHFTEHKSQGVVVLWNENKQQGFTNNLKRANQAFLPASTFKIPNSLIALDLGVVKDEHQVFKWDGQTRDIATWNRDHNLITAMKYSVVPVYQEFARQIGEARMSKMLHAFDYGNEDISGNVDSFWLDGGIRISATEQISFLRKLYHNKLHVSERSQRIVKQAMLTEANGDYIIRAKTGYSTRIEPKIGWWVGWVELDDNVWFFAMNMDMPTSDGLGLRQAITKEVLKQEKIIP
SMILES,Ki [1] [nM],Ki [2] [nM],Ki [3] [nM],Ki [4] [nM],Ki [5] [nM],PAM1154/KPC-2 Biapenem MPC64 [6],Ki [7] [nM],Ki [8] [nM],Ki [9] [nM],Ki [10] [nM],PAM1032/KPC-2 Biapenem MPC64 [11]
"O=C(O)c1cccc2c1OB(O)CC21CC1 [Compound 14, 4,4-dihydroxyspiro[5-oxa-4-boranuidabicyclo[4.4.0]deca-1(6),7,9-triene-2,1′-cyclopropane]-7-carboxylic acid]",< 100,< 100,< 100,< 100,> 1000,1.25,< 100,< 100,< 100,> 1000,40
"COc1ccc2c(c1C(=O)O)OB(O)C1(CO)CC21 (stereo not shown) [Compound 22, 2,2-dihydroxy-1a-(hydroxymethyl)-5-methoxy-1,7b-dihydrocyclopropa[c][1,2]benzoxaborinine-4-carboxylic acid]",< 100,< 100,< 100,< 100,< 100,10,> 1000,< 100,< 100,< 100,20
"COc1ccc2c(c1C(=O)O)OB(O)[C@@H]1COC[C@H]21 [Compound 23, (3aS,9bS)-4,4-dihydroxy-7-methoxy-1,3,3a,9b-tetrahydrofuro[3,4-c][1,2]benzoxaborinine-6-carboxylic acid]",< 100,< 100,< 100,< 100,100 to 1000,20,< 100,100 to 1000,< 100,> 1000,20
"O=C(O)c1c(F)c(F)cc2c1OB(O)C1CC21 (stereo not shown) [Compound 19, 5,6-difluoro-2,2-dihydroxy-1a,7b-dihydro-1H-cyclopropa[c][1,2]benzoxaborinine-4-carboxylic acid]",< 100,100 to 1000,< 100,< 100,< 100,1.25,< 100,< 100,< 100,> 1000,5
"COc1ccc2c(c1C(=O)O)OB(O)[C@H]1C[C@@H]21 [Compound 2, (1aS,7bR)-2-hydroxy-5-methoxy-1a,7b-dihydro-1H-cyclopropa[c][1,2]benzoxaborinine-4-carboxylic acid]",< 100,100 to 1000,< 100,< 100,100 to 1000,1.25,< 100,< 100,< 100,> 1000,2.5
"COc1ccc2c(c1C(=O)O)OB(O)[C@@H]1C[C@H]21 [Compound 3, (1aR,7bS)-2-hydroxy-5-methoxy-1a,7b-dihydro-1H-cyclopropa[c][1,2]benzoxaborinine-4-carboxylic acid]",< 100,< 100,< 100,< 100,< 100,2.5,< 100,< 100,< 100,< 100,5
"COc1ccc2c(c1C(=O)O)OB(O)C1CC21 (stereo not shown) [Compound 1, 2-Hydroxy-5-methoxy-1a,7b-dihydro-1H-cyclopropa[c][1,2]benzoxaborinine-4-carboxylic acid]",< 100,< 100,< 100,< 100,< 100,1.25,< 100,< 100,< 100,< 100,2.5
"O=C(O)c1cccc2c1OB(O)[C@@H]1C[C@H]21 [Compound 16, (1aR,7bS)-2,2-dihydroxy-1a,7b-dihydro-1H-cyclopropa[c][1,2]benzoxaborinine-4-carboxylic acid]",< 100,< 100,< 100,< 100,< 100,0.3,< 100,< 100,< 100,< 100,1.25
"COc1ccc2c(c1C(=O)O)OB(O)C1C2C1(F)F (stereo not shown) [Compound 5, 1,1-Difluoro-2-hydroxy-5-methoxy-1a,7b-dihydrocyclopropa[c][1,2]benzoxaborinine-4-carboxylic acid]",< 100,100 to 1000,< 100,< 100,> 1000,10,< 100,> 1000,100 to 1000,> 1000,20
"O=C(O)c1c(F)ccc2c1OB(O)CC21CC1 [Compound 15, 8-fluoro-4,4-dihydroxy-spiro[5-oxa-4-boranuidabicyclo[4.4.0]deca-1(6),7,9-triene-2,1′-cyclopropane]-7-carboxylic acid]",< 100,100 to 1000,< 100,< 100,> 1000,1.25,< 100,< 100,< 100,> 1000,5
"O=C(O)c1cccc2c1OB(O)[C@H]1C[C@@H]21 [Compound 18, (1aS,7bR)-2,2-dihydroxy-1a,7b-dihydro-1H-cyclopropa[c][1,2]benzoxaborinine-4-carboxylic acid]",< 100,< 100,< 100,< 100,100 to 1000,0.3,100 to 1000,100 to 1000,100 to 1000,> 1000,5
